# Measured values: PubChem BioAssay (NCI)
# “And” between values parts separate entries of the source, which are not always exact repeats. Identical values can stand only once.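 All cell lines were grown in 96-well plates and treated with compound for 48 hours. GI50: concentration for 50% inhibition of growth. TGI: total growth inhibition.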
# Columns and labels:
# Experiment in all cases: NCI tumour cell line growth inhibition, 48 h
# UACC-257 melanoma = system: UACC-257 melanoma
# SR leukemia = system: SR leukemia
# DU-145 prostate = system: DU-145 prostate
# SN12K1 renal = system: SN12K1 renal
# HOP-18 NSCLC = system: HOP-18 NSCLC
# P388/ADR leukemia = system: P388/ADR leukemia
# SNB-78 CNS = system: SNB-78 CNS
# HT29 colon = system: HT29 colon
# RXF 393 renal = system: RXF 393 renal
# P388 leukemia = system: P388 leukemia
# XF 498 CNS = system: XF 498 CNS
# KM20L2 colon = system: KM20L2 colon
# DLD-1 colon = system: DLD-1 colon
# LXFL 529 NSCLC = system: LXFL 529 NSCLC
# HS 578T breast = system: HS 578T breast
# ACHN renal = system: ACHN renal
# SK-MEL-28 melanoma = system: SK-MEL-28 melanoma
# DMS 273 small cell lung = system: DMS 273 small cell lung
# RXF-631 renal = system: RXF-631 renal
# SNB-75 CNS = system: SNB-75 CNS
# MDA-N = system: MDA-N
# DMS 114 small cell lung = system: DMS 114 small cell lung
# UACC-62 melanoma = system: UACC-62 melanoma
# SK-MEL-2 melanoma = system: SK-MEL-2 melanoma
# SF-268 CNS = system: SF-268 CNS
# SF-539 CNS = system: SF-539 CNS
# LOX IMVI melanoma = system: LOX IMVI melanoma
# CAKI-1 renal = system: CAKI-1 renal
# HCC-2998 colon = system: HCC-2998 colon
# RPMI-8226 leukemia = system: RPMI-8226 leukemia
# U251 CNS = system: U251 CNS
# HCT-116 colon = system: HCT-116 colon
# SNB-19 CNS = system: SNB-19 CNS
# IGROV1 ovarian = system: IGROV1 ovarian
# M14 melanoma = system: M14 melanoma
# SW-620 colon = system: SW-620 colon
# KM12 colon = system: KM12 colon
# OVCAR-4 ovarian = system: OVCAR-4 ovarian
# SF-295 CNS = system: SF-295 CNS
# HCT-15 colon = system: HCT-15 colon
# HOP-92 NSCLC = system: HOP-92 NSCLC
# NCI-H460 lung = system: NCI-H460 lung
# 786-0 renal = system: 786-0 renal
# NCI-H23 lung = system: NCI-H23 lung
# NCI-H226 lung = system: NCI-H226 lung
# NCI-H522 lung = system: NCI-H522 lung
# HL-60(TB) leukemia = system: HL-60(TB) leukemia
# A549 NSCLC = system: A549 NSCLC
# SN12C renal = system: SN12C renal
# OVCAR-3 ovarian = system: OVCAR-3 ovarian
# MALME-3M melanoma = system: MALME-3M melanoma
# TK-10 renal = system: TK-10 renal
# CCRF-CEM leukemia = system: CCRF-CEM leukemia
# MOLT-4 leukemia = system: MOLT-4 leukemia
# SK-MEL-5 melanoma = system: SK-MEL-5 melanoma
# UO-31 renal = system: UO-31 renal
# K-562 leukemia = system: K-562 leukemia
# EKVX NSCLC = system: EKVX NSCLC
# M19-MEL melanoma = system: M19-MEL melanoma
# HOP-62 NSCLC = system: HOP-62 NSCLC
# A498 renal = system: A498 renal
# OVCAR-5 ovarian = system: OVCAR-5 ovarian
# OVCAR-8 ovarian = system: OVCAR-8 ovarian
# COLO 205 colon = system: COLO 205 colon
# SK-OV-3 ovarian = system: SK-OV-3 ovarian
smiles,measurement,setting,value
CC[C@]1(O)C[C@H]2CN(CCc3c([nH]c4ccccc34)[C@@](C(=O)OC)(c3cc4c(cc3OC)N(C)[C@H]3[C@@](O)(C(=O)OC)[C@H](OC(C)=O)[C@]5(CC)C=CCN6CC[C@]43[C@@H]65)C2)C1,TGI,UACC-257 melanoma,1.89 µM and 2.5 µM and 16.1 µM
same,GI50,SR leukemia,< 2.5 pM
same,GI50,DU-145 prostate,7.48 pM
same,TGI,SN12K1 renal,0.0027 µM
same,TGI,HOP-18 NSCLC,1.51 µM
same,TGI,P388/ADR leukemia,0.931 µM
same,TGI,SNB-78 CNS,1.7 µM
same,TGI,HT29 colon,0.124 µM
same,GI50,RXF 393 renal,0.00135 µM
same,TGI,P388 leukemia,0.139 µM
same,TGI,XF 498 CNS,0.0333 µM
same,GI50,KM20L2 colon,0.025 nM
same,TGI,KM20L2 colon,0.00183 µM
same,TGI,DLD-1 colon,2.5 µM
same,TGI,LXFL 529 NSCLC,1.06 µM
same,TGI,HS 578T breast,0.24 µM and 1.37 µM
same,GI50,ACHN renal,0.0527 nM
same,GI50,SK-MEL-28 melanoma,7.41 pM
same,TGI,DMS 273 small cell lung,0.123 µM
same,TGI,RXF-631 renal,1.03 µM
same,TGI,SNB-75 CNS,0.025 µM and 0.0807 µM
same,TGI,MDA-N,0.00025 µM and 0.000771 µM
same,TGI,DMS 114 small cell lung,0.00581 µM
Cc1ccc(C)c(NC(=O)C(=O)C2C(=O)N(c3ccccc3)N=C2N)c1 (stereo unspecified),TGI,UACC-62 melanoma,> 100 µM
same,TGI,UACC-257 melanoma,> 100 µM
same,TGI,SK-MEL-2 melanoma,> 100 µM
same,TGI,SF-268 CNS,> 100 µM
same,TGI,SF-539 CNS,> 100 µM
same,TGI,LOX IMVI melanoma,> 100 µM
same,TGI,CAKI-1 renal,> 100 µM
same,TGI,HCC-2998 colon,> 100 µM
same,TGI,RPMI-8226 leukemia,> 100 µM
same,TGI,U251 CNS,> 100 µM
same,TGI,HCT-116 colon,> 100 µM
same,TGI,SNB-19 CNS,> 100 µM
same,TGI,IGROV1 ovarian,> 100 µM
same,TGI,M14 melanoma,> 100 µM
same,TGI,HOP-18 NSCLC,> 100 µM
same,TGI,SW-620 colon,> 100 µM
same,TGI,KM12 colon,> 100 µM
same,TGI,OVCAR-4 ovarian,> 100 µM
same,TGI,SF-295 CNS,> 100 µM
same,TGI,HCT-15 colon,> 100 µM
same,TGI,HOP-92 NSCLC,> 100 µM
same,TGI,SNB-78 CNS,> 100 µM
same,TGI,NCI-H460 lung,> 100 µM
same,TGI,HT29 colon,> 100 µM
same,TGI,RXF 393 renal,> 100 µM
same,TGI,786-0 renal,> 100 µM
same,TGI,XF 498 CNS,> 100 µM
same,TGI,KM20L2 colon,> 100 µM
same,TGI,DLD-1 colon,> 100 µM
same,TGI,NCI-H23 lung,> 100 µM
same,TGI,NCI-H226 lung,> 100 µM
same,TGI,LXFL 529 NSCLC,> 100 µM
same,TGI,NCI-H522 lung,> 100 µM
same,TGI,HL-60(TB) leukemia,> 100 µM
same,TGI,A549 NSCLC,> 100 µM
same,TGI,SN12C renal,> 100 µM
same,TGI,OVCAR-3 ovarian,> 100 µM
same,TGI,MALME-3M melanoma,> 100 µM
same,TGI,TK-10 renal,> 100 µM
same,TGI,CCRF-CEM leukemia,> 100 µM
same,TGI,ACHN renal,> 100 µM
same,TGI,MOLT-4 leukemia,> 100 µM
same,TGI,SK-MEL-5 melanoma,> 100 µM
same,TGI,UO-31 renal,> 100 µM
same,TGI,K-562 leukemia,> 100 µM
same,TGI,SK-MEL-28 melanoma,> 100 µM
same,TGI,EKVX NSCLC,> 100 µM
same,TGI,M19-MEL melanoma,> 100 µM
same,TGI,HOP-62 NSCLC,> 100 µM
same,TGI,A498 renal,> 100 µM
same,TGI,OVCAR-5 ovarian,> 100 µM
same,TGI,DMS 273 small cell lung,> 100 µM
same,TGI,RXF-631 renal,> 100 µM
same,TGI,SNB-75 CNS,> 100 µM
same,TGI,OVCAR-8 ovarian,> 100 µM
COC(=O)c1ccc(C(=O)OC)c2nc3cc(Cl)ccc3nc12,TGI,UACC-62 melanoma,> 100 µM
same,TGI,UACC-257 melanoma,> 100 µM
same,TGI,SK-MEL-2 melanoma,> 100 µM
same,TGI,SF-268 CNS,> 100 µM
same,TGI,SF-539 CNS,> 100 µM
same,TGI,LOX IMVI melanoma,> 100 µM
same,TGI,CAKI-1 renal,> 100 µM
same,TGI,HCC-2998 colon,> 100 µM
same,TGI,RPMI-8226 leukemia,> 100 µM
same,TGI,U251 CNS,> 100 µM
same,TGI,HCT-116 colon,> 100 µM
same,TGI,SNB-19 CNS,> 100 µM
same,TGI,IGROV1 ovarian,> 100 µM
same,TGI,M14 melanoma,> 100 µM
same,TGI,HOP-18 NSCLC,> 100 µM
same,TGI,SW-620 colon,> 100 µM
same,TGI,KM12 colon,> 100 µM
same,TGI,OVCAR-4 ovarian,> 100 µM
same,TGI,SF-295 CNS,> 100 µM
same,TGI,HCT-15 colon,> 100 µM
same,TGI,HOP-92 NSCLC,> 100 µM
same,TGI,NCI-H460 lung,> 100 µM
same,TGI,COLO 205 colon,> 100 µM
same,TGI,HT29 colon,> 100 µM
same,TGI,786-0 renal,> 100 µM
same,TGI,XF 498 CNS,> 100 µM
same,TGI,KM20L2 colon,> 100 µM
same,TGI,DLD-1 colon,> 100 µM
same,TGI,NCI-H23 lung,> 100 µM
same,TGI,SK-OV-3 ovarian,> 100 µM
same,TGI,NCI-H226 lung,> 100 µM
same,TGI,LXFL 529 NSCLC,> 100 µM
same,TGI,NCI-H522 lung,> 100 µM
same,TGI,HL-60(TB) leukemia,> 100 µM
same,TGI,A549 NSCLC,> 100 µM
same,TGI,SN12C renal,> 100 µM
same,TGI,OVCAR-3 ovarian,> 100 µM
same,TGI,MALME-3M melanoma,> 100 µM
same,TGI,TK-10 renal,> 100 µM
same,TGI,CCRF-CEM leukemia,> 100 µM
same,TGI,ACHN renal,> 100 µM
same,TGI,MOLT-4 leukemia,> 100 µM
same,TGI,SK-MEL-5 melanoma,> 100 µM
same,TGI,UO-31 renal,> 100 µM
same,TGI,K-562 leukemia,> 100 µM
same,TGI,SK-MEL-28 melanoma,> 100 µM
same,TGI,EKVX NSCLC,> 100 µM
same,TGI,M19-MEL melanoma,> 100 µM
same,TGI,HOP-62 NSCLC,> 100 µM
same,TGI,A498 renal,> 100 µM
same,TGI,OVCAR-5 ovarian,> 100 µM
same,TGI,DMS 273 small cell lung,> 100 µM
same,TGI,RXF-631 renal,> 100 µM
same,TGI,SNB-75 CNS,> 100 µM
same,TGI,OVCAR-8 ovarian,> 100 µM
same,TGI,DMS 114 small cell lung,> 100 µM
COc1ccc(/C=N/N=C(\N)NO)cc1F,TGI,UACC-62 melanoma,36.3 µM
same,TGI,UACC-257 melanoma,> 100 µM
same,TGI,SK-MEL-2 melanoma,> 100 µM
same,TGI,SF-268 CNS,66.7 µM
same,TGI,SR leukemia,86.5 µM
same,TGI,SF-539 CNS,60.1 µM
same,TGI,LOX IMVI melanoma,48.7 µM
same,TGI,CAKI-1 renal,46.5 µM
same,TGI,HCC-2998 colon,> 100 µM
same,TGI,RPMI-8226 leukemia,> 100 µM
same,TGI,U251 CNS,> 100 µM
same,TGI,HCT-116 colon,> 100 µM
same,TGI,SNB-19 CNS,> 100 µM
same,TGI,IGROV1 ovarian,> 100 µM
same,TGI,M14 melanoma,33.3 µM
same,TGI,HOP-18 NSCLC,90.5 µM
same,TGI,SW-620 colon,> 100 µM
same,TGI,KM12 colon,> 100 µM
same,TGI,OVCAR-4 ovarian,> 100 µM
same,TGI,SF-295 CNS,87.6 µM
same,TGI,HCT-15 colon,> 100 µM
same,TGI,HOP-92 NSCLC,76.2 µM
same,TGI,SNB-78 CNS,> 100 µM
same,TGI,NCI-H460 lung,> 100 µM
same,TGI,COLO 205 colon,> 100 µM
same,TGI,HT29 colon,38.3 µM
same,TGI,RXF 393 renal,73.2 µM
same,TGI,786-0 renal,48.5 µM
same,TGI,XF 498 CNS,96 µM
same,TGI,KM20L2 colon,> 100 µM
same,TGI,DLD-1 colon,> 100 µM
same,TGI,NCI-H23 lung,81 µM
same,TGI,SK-OV-3 ovarian,> 100 µM
same,TGI,NCI-H226 lung,41.4 µM
same,TGI,LXFL 529 NSCLC,> 100 µM
same,TGI,NCI-H522 lung,87.1 µM
same,TGI,HL-60(TB) leukemia,> 100 µM
same,TGI,A549 NSCLC,85.6 µM
same,TGI,SN12C renal,> 100 µM
same,TGI,OVCAR-3 ovarian,> 100 µM
same,TGI,MALME-3M melanoma,> 100 µM
same,TGI,TK-10 renal,> 100 µM
same,TGI,CCRF-CEM leukemia,> 100 µM
same,TGI,ACHN renal,45.3 µM
same,TGI,MOLT-4 leukemia,> 100 µM
same,TGI,SK-MEL-5 melanoma,18.5 µM
same,TGI,UO-31 renal,39.6 µM
same,TGI,K-562 leukemia,56.4 µM
same,TGI,SK-MEL-28 melanoma,> 100 µM
same,TGI,EKVX NSCLC,> 100 µM
same,TGI,M19-MEL melanoma,72.3 µM
same,TGI,HOP-62 NSCLC,72.5 µM
same,TGI,OVCAR-5 ovarian,97.2 µM
same,TGI,DMS 273 small cell lung,84.4 µM
same,TGI,RXF-631 renal,> 100 µM
same,TGI,SNB-75 CNS,89.5 µM
same,TGI,OVCAR-8 ovarian,> 100 µM
